Key:
BE2C cells = test: Cell proliferation assay (MTS) in BE2C cells; type: cell-based; conditions: Homo sapiens, BE(2)-C, 48 h
Excerpt: (§1) MTS testing kit was purchased from Promega. The DMEM, Fetal bovine serum and Penicillin-Streptomycin were purchased from Gibco. Dimethyl sulfoxide (DMSO) was purchased from Sigma.
(§2) To investigate whether a compound is able to inhibit the activity of CDK4/6 in cells, mechanism-based assays using BE2C (ATCC® number: CRL-2268) or JEKO-1 (ATCC® number: CRL-3006) cell were developed. In the assay, inhibition of CDK4/6 was detected by the inhibition of BE2C or JEKO-1 cell cells proliferation. BE2C or JEKO-1 cell cells were cultured in culture flasks to 40-80% confluence in DMEM plus 10% fetal bovine serum. Cells were collected and plated onto 96-well plates at desired cell density (BE2C: 3000 cells/well; JEKO-1: 30000 cells/well). Plates were incubated overnight at 37° C., with 5% CO2 to adhere. Compounds were added to the plates, the final compound concentrations were 10000, 3333, 1111, […], 123.5, 41.2, 13.7, 4.6 and 1.5 nM. Place plates at 37° C., with 5% CO2 for 48 h. After removing the medium, 20 μl MTS/100 μl medium mixture solution were added to each well and incubate the plates for exactly 2 hours. Stop the reaction by adding 25 μl 10% SDS per well. Measure absorbance at 490 nm and 650 nm (reference wavelength). IC50 was calculated using GraphPad Prism 5.0.
(§3) Select compounds prepared as described above were assayed according to the biological procedures described herein. “+++” stands for IC50 value between greater than about 10 nM to about 100 nM. “++” stands for IC50 value between greater than about 100 nM to about 1 μM. “+” stands for IC50 value greater than 1 μM.

JEKO-1 cells = test: Cell proliferation assay (MTS) in JEKO-1 cells; type: cell-based; conditions: Homo sapiens, 48 h
Excerpt: as §1, §2, §3

COLO205 xenograft tumors = test: Tumor growth inhibition in COLO205 xenograft tumors; type: in vivo, mice; conditions: for TGI %: TGI = (1−T/C)×100%
Description: COLO205 cells were cultured with RPMI-1640 medium containing 10% fetal bovine serum (FBS) at 37° C. in 5% CO^2 incubator. Logarithmic growth phase cells were collected. COLO205 cells (5×10^6 in 200 μL PBS) were implanted subcutaneously into the left flank region, and tumor growth was monitored. Tumor volume (V) was estimated from the length (l) and width (w) of the tumor using the following formula: V=1/2×l×w^2. Treatment started when average tumor size was 100-200 mm^3.
The dosage and dosage regimen were as shown table 2. Tumor volumes and mice weight were measured 2 to 3 times every week.
Drug efficacy was assessed as Tumor Growth Inhibition (TGI) and T/C ratio. TGI was defined as (1−T/C)×100%, wherein T/C (%) presented the ratio of the change in mean tumor volume of the treated group and of the control group.

[1] = Pharmacokinetic properties in dogs; type: in vivo; conditions: dog, po; male Beagle dogs, 3 mg/kg p.o., plasma
Description: Each test compounds was suspended in 0.5% methylcellulose (400 cP, w/v) in water.
Grouping male Beagle dogs was administered with test compound at a dose of 3 mg/kg by oral. After administering, blood samples were collected at time points of 0.25, 0.50, 1.0, 2.0, 4.0, 8.0 and 24.0 h. Standard curve was plotted based on concentrations of the samples in a suitable range, and the concentration of test compounds in plasma samples were determined by using LC-MS/MS. Pharmacokinetic parameters were calculated according to drug concentration-time curve using a non-compartmental method by Phoenix WinNonLin 6.3 software.

Row | Compound | IC50 (BE2C cells) [nM] | IC50 (JEKO-1 cells) [nM] | T/C % (COLO205 xenograft tumors; 30 mg/kg PO QD × 14 days) [%] | TGI % (COLO205 xenograft tumors; 30 mg/kg PO QD × 14 days) [%] | AUC(0-inf) [1] [ng·h/mL] | AUC(0-t) [1] [ng·h/mL] | Cmax [1] [ng/mL] | half-life [1] [h] | T/C % (COLO205 xenograft tumors; 60 mg/kg PO QD × 14 days) [%] | TGI % (COLO205 xenograft tumors; 60 mg/kg PO QD × 14 days) [%]
1 | CCN1CCC(N2CCN(c3ccc(Nc4ncc5sc(C(=O)N(C)C)c(C6CCCC6)c5n4)nc3)CC2)CC1 [Example 2, 7-cyclopentyl-2-((5-(4-(1-ethylpiperidin-4-yl)piperazin-1-yl)pyridin-2-yl)amino)-N,N-dimethylthieno[3,2-d]pyrimidine-6-carboxamide] | 10 to 100 | 100 to 1000 | 0.88 | 99.12 | 7010 | 2500 | 127 | 26 | – | –
2 | CN1CCC(N2CCN(c3ccc(Nc4ncc5sc(C(=O)N(C)C)c(C6CCCC6)c5n4)nc3)CC2)CC1 [Example 3, 7-cyclopentyl-N,N-dimethyl-2-((5-(4-(1-methylpiperidin-4-yl)piperazin-1-yl)pyridin-2-yl)amino)thieno[3,2-d]pyrimidine-6-carboxamide] | 10 to 100 | 100 to 1000 | – | – | – | – | – | – | – | –
3 | CCN1CCN(C2CCN(c3ccc(Nc4ncc5sc(C(=O)N(C)C)c(C6CCCC6)c5n4)nc3)CC2)CC1 [Example 6, 7-cyclopentyl-2-((5-(4-(4-ethylpiperazin-1-yl)piperidin-1-yl)pyridin-2-yl)amino)-N,N-dimethylthieno[3,2-d]pyrimidine-6-carboxamide] | 10 to 100 | 10 to 100 | – | – | 7340 | 5030 | 404 | 13.2 | −2.97 | 102.97
4 | CN1CCN(c2ccc(Nc3ncc4sc(C(=O)N(C)C)c(C5CCCC5)c4n3)nc2)CC1 [Reference Compound 1, 7-cyclopentyl-N,N-dimethyl-2-(5-(4-methylpiperazin-1-yl)pyridin-2-ylamino)thieno[3,2-d]pyrimidine-6-carboxamide, reference compound] | – | – | – | – | 103 | 83 | 36 | 5.36 | – | –
5 | CN(C)C(=O)c1sc2cnc(Nc3ccc(N4CCN(C5CCNCC5)CC4)cn3)nc2c1C1CCCC1 [Example 1, 7-cyclopentyl-N,N-dimethyl-2-((5-(4-(piperidin-4-yl)piperazin-1-yl)pyridin-2-yl)amino)thieno[3,2-d]pyrimidine-6-carboxamide] | – | 100 to 1000 | – | – | – | – | – | – | – | –
6 | CN1CCN(C2CCN(c3ccc(Nc4ncc5sc(C(=O)N(C)C)c(C6CCCC6)c5n4)nc3)CC2)CC1 [Example 5, 7-cyclopentyl-N,N-dimethyl-2-((5-(4-(4-methylpiperazin-1-yl)piperidin-1-yl)pyridin-2-yl)amino)thieno[3,2-d]pyrimidine-6-carboxamide] | 10 to 100 | 10 to 100 | – | – | 7520 | 4660 | 312 | 16.1 | −2.31 | 102.31
7 | CN(C)C(=O)c1cc2cnc(Nc3ccc(N4CCNCC4)cn3)nc2n1C1CCCC1 [Ribociclib, reference compound] | – | – | – | – | – | – | – | – | 25.6 | 74.40
8 | CN(C)C(=O)c1sc2cnc(Nc3ccc(N4CCC(N5CCOCC5)CC4)cn3)nc2c1C1CCCC1 [Example 7, 7-cyclopentyl-N,N-dimethyl-2-((5-(4-morpholinopiperidin-1-yl)pyridin-2-yl)amino)thieno[3,2-d]pyrimidine-6-carboxamide] | 10 to 100 | – | – | – | – | – | – | – | – | –
9 | CN(C)C(=O)c1sc2cnc(Nc3ccc(N4CCC(N5CCNCC5)CC4)cn3)nc2c1C1CCCC1 [Example 4, 7-cyclopentyl-N,N-dimethyl-2-((5-(4-(piperazin-1-yl)piperidin-1-yl)pyridin-2-yl)amino)thieno[3,2-d]pyrimidine-6-carboxamide] | 100 to 1000 | – | – | – | – | – | – | – | – | –

From US10835535B2, “Certain protein kinase inhibitors” (Shanghai Fochon Pharmaceutical Co., Ltd., priority 2016, dated 2020)
